Measurements taken from US20240246934A1, “QUINAZOLINE-BASED COMPOUND, COMPOSITION, AND APPLICATION OF QUINAZOLINE-BASED COMPOUND” (BEIJING SCITECH-MQ PHARMACEUTICALS LIMITED, priority 2021, published 2024).
Like-named read-outs stand apart in the source and are kept apart here.

How the values were obtained:
NCI-N87 cells = experiment: Inhibition of cell proliferation, CTG method, NCI-N87; format: cell-based; conditions: Homo sapiens, 72 hours, read-out: hNCI-N87 IC50
From the text: The present application examined the in vitro anti-proliferative activity of the compounds of the present disclosure against in vitro cultured BT474, NCI-N87, Ba/F3-EGFR-VIII and Ba/F3 HER2 A775_G776insYVMA and Ba/F3 EGFR D770_N771insSVD cell lines by CTG method.
Reagents and consumables: RPMI1640 (ThermoFisher, Cat. No. C11875500BT); fetal bovine serum (Hyclone, Cat. No. SV30087.03); 0.25% trypsin-EDTA (ThermoFisher, Cat. No. 25200-072); penicillin-streptomycin (Hyclone, Cat. No. SV30010); DMSO (Amresco, Cat. No. 0231-500ML); CTG assay kit (Promega, Cat. No. G924C); 96-well plate (Corning, Cat. No. 3603); multifunctional plate reader (Perkin Elmer, Cat. No. Envision)
Cell lines: BT474 (from the cell bank of Chinese Academy of Sciences), NCI-N87 (from ATCC), Ba/F3-EGFR-VIII, Ba/F3 HER2 A775_G776insYVMA and Ba/F3 EGFR D770_N771insSVD (all from KYinno Biotechnology (Beijing) Co., Ltd.); all of the above cells were cultured with RPMI1640 medium containing 10% fetal bovine serum, 100 U/mL penicillin, and 100 μg/mL streptomycin in the culture process.
1. The assay compound was dissolved with DMSO to form a stock solution and a gradient dilution was performed, followed by dilution with the corresponding medium to obtain a solution with 5-fold working concentration.
2. Cells in logarithmic growth phase were adjusted to specific cell densities by dilution with culture medium, and 80 μL of cell suspension was added to a 96-well plate, such that plating densities of cells of BT474, NCI-N87, Ba/F3-EGFR-VIII, Ba/F3 HER2 A775_G776insYVMA and Ba/F3 EGFR D770_N771insSVD were all 3000 cells/well. The cells of Ba/F3-EGFR-VIII, Ba/F3 HER2 A775_G776insYVMA and Ba/F3 EGFR D770_N771insSVD were used directly in the next step (treatment with compound), whereas the BT474 and NCI-N87 needed to be cultured overnight in a 37° C., 5% carbon dioxide gas incubator to adhere to the wall, and then treated with compounds.
3. 20 μL of compound solution was added to each well of the 96-well plate that had been inoculated with cells. The highest concentration of the assayed compound was 10 μM, 4-fold serial dilution, a total of 9 concentrations, and duplicate wells. A control group without compound was also set up.
4. The cells were cultured for another 72 hours, and then cell viability was detected by CTG assay kit. Signal values were read with a multifunctional plate reader (Perkin Elmer). GraphPad Prism software was used to create a dose-response curve and IC50 was calculated.

[1] = Brain tissue and whole blood concentration in SD rats after oral administration; format: in vivo; conditions: rat, PO 10 mg/kg, 2 h after administration
Experimental: In this assay, the pharmacokinetic characteristics of the compounds of the present application were assayed after administration of some of the compounds of the present application to SD rats by single oral administration and intravenous injection.
2. […] The mixture was stirred, vortexed and/or sonicated. Once a solution was obtained, the vehicle was gradually added to a final volume to reach the target concentration. The solution was vortexed, and sonicated to obtain a homogeneous solution.
Meanwhile, the IV group was not fasted and the PO group was fasted overnight (>12 hrs) and given food 2 hrs after drug administration. All animals had free access to water. The dosing regimen and pharmacokinetic sampling regimen are given in Table 6 and Table 7 below, respectively.
Rats were administered according to the above regimen, and blood and brain tissue samples were collected and processed at predetermined time points (collection and processing were performed according to conventional methods in the art).
The supernatant was diluted 2-fold with ultra-pure water, and the samples were analyzed by LC/MS.
Brain tissues were weighed and homogenized by adding 4-fold homogenizing solution (acetonitrile/water=1/1 v/v). […] The supernatant was diluted 2-fold with ultra-pure water, and the samples were analyzed by LC/MS.

concentration at 2 h ([1]; whole blood, read-out: Blood drug concentration)	Kp at 2 h ([1]; brain / whole blood, read-out: Brain tissue/blood ratio)	concentration at 2 h ([1]; brain, NA: Exposure was too low to be counted, read-out: Brain tissue concentration)	SMILES	IC50 (NCI-N87 cells)
–	–	–	COc1c(NC(=O)/C=C/[C@H]2CCCN2C)ccc2ncnc(Nc3ccc(OCc4ccccn4)c(Cl)c3)c12 [Example 4, (R,E)-N-(4-((3-chloro-4-(pyridin-2-ylmethoxy)phenyl)amino)-5-methoxyquinazolin-6-yl)-3-(1-methylpyrrolidin-2-yl)acrylamide]	< 1 nM
121 ng/mL	0.36	43.5 ng/g	CCN1CCC[C@@H]1/C=C/C(=O)Nc1ccc2ncnc(Nc3ccc(OCc4ccccn4)c(Cl)c3)c2c1OC [Example 29, (R,E)-N-(4-((3-chloro-4-(pyridin-2-ylmethoxy)phenyl)amino)-5-methoxyquinazolin-6-yl)-3-(1-ethylpyrrolidin-2-yl)acrylamide]	–
